Source: patent US9345710B2, “Inhibitors of phosphatidic acid phosphohydrolase (PAP) enzymes for the treatment of cancers that depend on members of the ErbB/HER tyrosine kinase receptor family” (PONTIFICA UNIVERSIDAD CATOLICA DE CHILE, priority 2011, dated 2016)
pEC50: −log10 of the molar value. “And” between values parts separate entries of the source, which are not always exact repeats. Identical values can stand only once.

Experiments:
[1] = cited from earlier work
EGFR at the cell surface [2] = details: highest dose 300 μM, 30 min; cited from earlier work
EGFR = experiment: Indirect immunofluorescence of EGFR distribution in HeLa cells; design: EGFR endocytosis (immunofluorescent pattern): dose or concentration left out as unconfirmed; details: for EGFR endocytosis (immunofluorescent pattern): […] μM propranolol, […] μM desipramine; for EGFR staining pattern by indirect immunofluorescence: 30 min, 100 μM D- or L-propranolol, 20 μM desipramine
Description: HeLa cells grown on glass coverslips were washed three times with cold phosphate buffer saline (PBS) and incubated 2 h in serum free DMEM-HEPES media at 37° C., in order to accumulate EGFR on the cell surface. Then the cells were washed with PBS and fixed for 30 min at room temperature with 4% paraformaldehyde in PBS supplemented with 0.1 mM CaCl2 and 1 mM MgCl 2 (PBS-CM). After washing three times with PBS plus 0.2% gelatin (300 Bloom, Sigma Aldrich, PBS-CM-G), 5 minutes each time, cells were permeabilized with 0.2% Triton X-100 for 10 minutes at room temperature and incubated for 12 h at 4° C. with anti-EGFR monoclonal antibody (mAb) HB8506. After at least 6 washes in PBS-CM-G cells were incubated with secondary antibody anti-mouse IgG coupled to Alexa488 (dilution 1/1000) for 30 min at 37° C.

GBM1 cells = experiment: Proliferation/viability of primary glioblastoma cells GBM1; assay type: cell-based, human; details: 10 μM D-Prop, 1 μM Des, alone or combined, 4 days
Description: (§1) Cells were seeded at a density of 10.000 cells per well in 24-well plates in triplicate and cultured in DMEM supplemented with 10% FBS and antibiotics (penicillin 100 U/ml and streptomycin 100 mg/ml). The medium with the drugs was changed each 24 hours. The respective controls received only culture medium. Viable cells were counted after 4 days of treatment in an automatic cell counter (Countess, Invitrogen) after incubation with vital tripan blue dye and are represented as % of live cells respect to untreated controls.

MDCK cells = experiment: Proliferation/viability, non-tumoral MDCK cells (selectivity control); assay type: cell-based, canine; details: 10 or 30 μM D-Prop, 1 μM Des, alone or combined, 4 days
Description: (§2) Viable cells counted in an automatic cell counter after incubation with vital tripan blue dye are represented as % of live cells respect to untreated controls.
as §1

U87 cells = experiment: Proliferation/viability of cultured tumor cells, U87; assay type: cell-based, human; details: 10 μM D-Prop, 1 μM Des, alone or combined, 4 days
Description: (§3) HeLa cells used for the radioligand binding assays and immunofluorescence to study EGFR endocytosis have been characterized previously in our laboratory (64, 122, 152). The cells were grown to approximately 80% confluence and maintained without serum for 4 h before testing. U87 human […] cells from the ATCC were grown and transfected with pcDNA3.1-EGFRvIII-myc using the lipofectamine method following the manufacturer's instructions (Invitrogen). 100,000 U87 cells were seeded in 15 mm plated and after 48 hours of seeding cells were transfected with 1 μg of plasmid pcDNA3-EGFRvIII-myc. After 48 hours post-transfection the selection medium (DMEM, 10% Fetal Bovine Serum (FBS) supplemented with antibiotics (100 IU/ml penicillin, […] streptomycin) and 0.8 mg/ml Geneticin was added (G418, Sigma). After 2 weeks in selection media, permanently transfected cells were obtained (U87-EGFRvIII).
as §1, with “The respective controls received only culture medium.” left out

UCI 101 cells = experiment: Proliferation/viability, ovarian cancer cells UCI 101; assay type: cell-based, human; details: 10 or 30 μM D-Prop, 1 μM Des, alone or combined, 4 days
Description: as §2, §1

EGFR at the cell surface [3] = experiment: 125I-EGF radioligand binding assay on HeLa cells (EGFR at the cell surface); assay type: cell-based, human; details: for decrease of EGFR at the cell surface (125I-EGF binding): 30 min, HeLa
Description: as §3
The radioligand ^125I-human EGF was prepared by the chloramine T method as described (122, 152, 160) yielding specific activities of 50000-70000 cpm/ng. Binding assays were performed in Hanks solution with 20 mM HEPES and 0.2% bovine serum albumin (BSA) for 1 h at 4° C., as described (122). HeLa cells deprived of serum for 4 h were treated for 30 min with the indicated doses of various drugs and then incubated with 20 ng/ml ^125I-EGF at 4° C. in binding medium (MEM-Hank's, 25 mM HEPES, 0.2% BSA RIA grade), stirring for 1 h. The cells were lysed with 1 N NaOH for 2 h at room temperature and the counts per minute of each sample in triplicate was determined in a gamma counter, including a nonspecific binding point obtained by incubation with an excess (500 fold) of cold ligand, whose value was subtracted from each sample. The radioligand binding in saturating condition provides an estimate of the amount of EGFR on the cell surface.

B16F10 cells = experiment: Proliferation/viability, melanoma cells B16F10; assay type: cell-based, mice; details: 10 or 30 μM D-Prop, 1 μM Des, alone or combined, 4 days
Description: as §2, §1

U87-EGFRvIII cells = experiment: Proliferation/viability of cultured tumor cells, U87-EGFRvIII; assay type: cell-based, human; details: 10 μM D-Prop, 1 μM Des, alone or combined, 4 days
Description: as §3
as §1, with “The respective controls received only culture medium.” left out

H1975 cells = experiment: Proliferation/viability, NSCLC cells H1975 (EGFR L858R/T790M); assay type: cell-based, human; details: 10 or 30 μM D-Prop, 1 μM Des, alone or combined, 4 days
Description: as §2, §1

Row | pEC50 (EGFR at the cell surface [3]; HeLa cells, serum deprived 4 h, drug 30 min, read-out: EC50 for decrease in 125I-EGF binding (EGFR at the cell surface)) | SMILES | half-time of concentration in circulation ([1]; human, in vivo) | decrease of the levels of EGFR at the cell surface (125I-EGF binding) (EGFR at the cell surface [2]) | EGFR endocytosis (immunofluorescent pattern) (EGFR) | proliferation of GBM1 cells (GBM1 cells) | concentration in the blood of patients ([1]; patients treated for arrhythmia, 12 h after the last dose (ref. 14)) | viable cells (% of live cells respect to untreated controls), MDCK (MDCK cells) | proliferation of U87 cells (U87 cells) | viable cells (% of live cells respect to untreated controls), UCI 101 (UCI 101 cells) | decrease of EGFR at the cell surface (125I-EGF binding) (EGFR at the cell surface [3]; 250 μM) | decrease of EGFR at the cell surface (125I-EGF binding) (EGFR at the cell surface [3]; […] μM) | viable cells (% of live cells respect to untreated controls), B16F10 (B16F10 cells) | proliferation of U87-EGFRvIII cells (U87-EGFRvIII cells) | EGFR staining pattern by indirect immunofluorescence (EGFR) | viable cells (% of live cells respect to untreated controls), H1975 (H1975 cells) | reported effective blood concentration ([1]; human, in vivo)
1 |  | CC(C)NCC(O)COc1cccc2ccccc12 (racemic) [propranolol] | 4 to 6 h | 80% | induce endocytosis of the EGFR |  |  |  |  |  |  |  |  |  |  |  | 
2 |  | CC(C)NC[C@@H](O)COc1cccc2ccccc12 [D-propranolol] |  |  |  | decrease their proliferation | ~10 µM | not affected | not sensitive | sensitive | ~80% | about 50% | sensitive | decrease their proliferation | the pattern changed to an intracellular location, mainly at the perinuclear region | sensitive | 
3 | 4.60 to 4.70 and ~4.70 | CNCCCN1c2ccccc2CCc2ccccc21 [desipramine] |  |  | induce endocytosis of the EGFR | decrease their proliferation |  | not affected | not sensitive | sensitive |  |  | sensitive | decrease their proliferation | the pattern changed to an intracellular location, mainly at the perinuclear region | sensitive | 1 µM
4 |  | CC(C)NC[C@H](O)COc1cccc2ccccc12 [L-propranolol] |  |  |  |  |  |  |  |  | ~80% | about 50% |  |  | the pattern changed to an intracellular location, mainly at the perinuclear region |  | 
